Measurements published in PubChem BioAssay AID1963439 (Molecular Pharmacology Branch, DTP, NCI, 2024).
Where “and” joins values, the source holds several entries; their conditions need not be identical. Equal values may be shown once.

Test system: NCI-H196 complex spheroids with HUVEC/MSC, growth % T/C
Assay: Anticancer human tumor NCI-H196 cell line growth inhibition [Asc];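 also: spheroids exposed to compound for 7 days before measurement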;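 as to viability, T/C: 100% = DMSO vehicle control wells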
Details: for viability, T/C: stronger effect = lower value
Experimental: Multicellular complex tumor spheroid response to apoptosis pathway targeting inhibitors Alrizomadlin, Pelcitoclax, and Dasminapant in combination with a variety of drugs and investigational agents in selected tumor cell lines
The MDM2 inhibitor alrizomadlin, the Bcl-2/Bcl-xL inhibitor pelcitoclax, and the IAPs inhibitor dasminapant were evaluated both individually and in combination with standard of care and investigational anticancer small molecules within a complex spheroid model of solid tumors. . Complex spheroids include a stromal component modeled by human endothelial cells (HUVEC) and fibroblasts modeled by human mesenchymal stem cells (MSCs). The concentration ranges selected for each drug and investigational agent were based upon clinically achievable concentrations if the clinical Cmax of the agent was known.
Compounds. The drugs and investigational agents: alrizomadlin (APG-115; NSC831270), pelcitoclax (APG-1252; NSC835773), dasminapant (APG-1387;NSC834197), TAK-243 (NSC785004), copanlisib (NSC809693), olaparib (NSC753686), talazoparib (NSC767125), cobimetinib (NSC 768068), eltanexor (KPT-8602, NSC 794443), abemaciclib (NSC 768073), sotorasib (NSC818433), adagrasib (NSC 831453), MRTX-1133 (NSC 836407), Iadademestat (ORY1001, NSC 806812), and RMC-4630 (NSC839698), were obtained from the NCI Developmental Therapeutics Program Chemical Repository. The FDA-approved anticancer drug set is available from the Developmental Therapeutics Program at https://dtp.cancer.gov/organization/dscb/obtaining/available plates.htm. […] The stock solutions were prepared in dimethyl sulfoxide (DMSO, Sigma-Aldrich, St. Louis, MO, cat. D2650) at 800-fold the tested concentration and stored at -70 degrees C prior to their use. All drugs and investigational agents were tested over a range starting from a high concentration at or near the clinical Cmax and decreasing in half-log increments. If the clinical Cmax for an agent had not been determined, the highest concentration tested was 10 microM.
The patient-derived cancer (PDC) cell lines include five colon adenocarcinomas: 186277-243-T-J2-PDC, 616215-338-R-J1-PDC, 439559-082-T-J2-PDC, 463943-066-T-J2-PDC, and 519858-162-T-J1-PDC; three pancreatic carcinomas: 323965-272-R-J2-PDC, 521955-158-R6-J3-PDC, and 521955-158-R2-J5-PDC; two uterine sarcomas: 327498-152-R-J2-PDC and 993429-296-R-J1-PDC; two rhabdomyosarcomas: 755483-174-R-J1-PDC and 772245-204-R-J1-PDC; two soft tissue sarcomas: 126254-015-R-J1-PDC and 494315-158-R-J1-PDC; two malignant fibrous histiocytomas: 317291-083-R-J1-PDC and 596521-263-R-J1-PDC; two breast carcinomas: 171881-019-R-J1-PDC and 885512-296-R-J2-PDC; and one ovarian carcinoma: 6556581-035-R-J-PDC were obtained from the NCI PDMR, (https://pdmr.cancer.gov). The established cell lines HSSY-2 synovial sarcoma (RRID:CVCL 8719), SYO-1 synovial sarcoma (RRID:CVCL_7146), MPNST malignant peripheral neural sheath tumor were obtained from the Sloan Kettering Institute. The following established cell lines were purchased from the American Type Culture Collection (ATCC, Manassas, VA), Sor the received from the NCI repository:, PANC-1 pancreatic carcinoma (CRL-1469, RRID:CVCL_0480), OVCAR-5 ovarian carcinoma (RRID:CVCL_1628), OVCAR-8 ovarian carcinoma (RRID:CVCL_1629), , MCF-7 breast carcinoma (CRL-12584, RRID:CVCL_0031), MDA-MB-231 breast carcinoma (CRL-12532, RRID:CVCL_0062), NCI-H1876 small cell lung carcinoma (CRL-5902, RRID:CVCL_1503), NCI-H510A small cell lung carcinoma (HTB-184, RRID:CVCL_1565), NCI-H1417 (CRL-5869, RRID:CVCL_1469), and NCI-H196 small cell lung carcinoma (CRL-5823, RRID:CVCL_1509). Dr. Peter Houghton (Greehey Children's Cancer Research Institute, University of Texas Health Science Center, San Antonio, TX) provided Rh-18 rhabdomyosarcoma (RRID:CVCL_1659). Pooled donor human umbilical vein endothelial cells (HUVEC, Lonza, cat. CC-2519) and human mesenchymal stem cells (hMSC, Lonza, cat. PT-2501) were purchased from Lonza (Walkersville, MD).
Cell Culture. […]

[1] = curve of first compound, second compound 0.1 µM
[2] = curve of first compound, second compound 0.316 µM
[3] = curve of first compound, second compound 1 µM
[4] = second compound 0.1 µM, first compound 0.00316 µM
[5] = second compound 0.1 µM, first compound 0.01 µM
[6] = second compound 0.1 µM, first compound 0.0316 µM
[7] = second compound 0.1 µM, first compound 0.1 µM
[8] = second compound 0.1 µM, first compound 0.316 µM
[9] = second compound 0.1 µM, first compound 1 µM
[10] = second compound 0.316 µM, first compound 0.00316 µM
[11] = second compound 0.316 µM, first compound 0.01 µM
[12] = second compound 0.316 µM, first compound 0.0316 µM
[13] = second compound 0.316 µM, first compound 0.1 µM
[14] = second compound 0.316 µM, first compound 0.316 µM
[15] = second compound 0.316 µM, first compound 1 µM
[16] = second compound 1 µM, first compound 0.00316 µM
[17] = second compound 1 µM, first compound 0.01 µM
[18] = second compound 1 µM, first compound 0.0316 µM
[19] = second compound 1 µM, first compound 0.1 µM
[20] = second compound 1 µM, first compound 0.316 µM
[21] = second compound 1 µM, first compound 1 µM

Compound: NC(=O)C(=Cn1cnc(-c2cc(C(F)(F)F)cc(C(F)(F)F)c2)n1)c1cncnc1
- viability, T/C (compound 0.000949 µM): 112% and 103% and 99.9%
- viability, T/C (compound 0.003 µM): 101% and 99.4% and 88.3%
- viability, T/C (compound 0.00949 µM): 79% and 71.1% and 58.7%
- viability, T/C (compound 0.03 µM): 48.9% and 49.5% and 27.4%
- viability, T/C (compound 0.0949 µM): 9.22% and 11.1% and 7.62%
- viability, T/C (compound 0.3 µM): 6.01% and 7.26% and 5.35%
- IC50 (curve of compound): 25.1 nM and 23.9 nM and 13.1 nM

Compound: COc1c(OCCCN2CCOCC2)ccc2c3n(c(=NC(=O)c4cnc(N)nc4)nc12)CCN3 + Cc1c(S(C)(=O)=O)c(-c2cc(F)cc(N3CCN(c4ccc(NS(=O)(=O)c5ccc(NC(CCN6CCC(C(=O)OCCCP(=O)(O)O)CC6)CSc6ccccc6)c(S(=O)(=O)C(F)(F)F)c5)cc4)CC3)c2)c(-c2ccc(Cl)cc2)n1C(C)C
- IC50 [1]: > 1000 nM
- IC50 [2]: > 1000 nM
- IC50 [3]: 286 nM
- IC50 (curve of first compound, second compound 3.16 µM): 225 nM
- IC50 (curve of first compound, second compound 10 µM): 132 nM
- viability, T/C [4]: 96.6%
- viability, T/C [5]: 88.3%
- viability, T/C [6]: 76.4%
- viability, T/C [7]: 77.5%
- viability, T/C [8]: 59.7%
- viability, T/C [9]: 50.8%
- viability, T/C [10]: 90.6%
- viability, T/C [11]: 86.8%
- viability, T/C [12]: 82.3%
- viability, T/C [13]: 62.7%
- viability, T/C [14]: 57.9%
- viability, T/C [15]: 50.7%
- viability, T/C [16]: 88.8%
- viability, T/C [17]: 86.5%
- viability, T/C [18]: 74.6%
- viability, T/C [19]: 60.5%
- viability, T/C [20]: 49.3%
- viability, T/C [21]: 43.9%
- viability, T/C (second compound 3.16 µM, first compound 0.00316 µM): 80%
- viability, T/C (second compound 3.16 µM, first compound 0.01 µM): 88.7%
- viability, T/C (second compound 3.16 µM, first compound 0.0316 µM): 72.3%
- viability, T/C (second compound 3.16 µM, first compound 0.1 µM): 62.8%
- viability, T/C (second compound 3.16 µM, first compound 0.316 µM): 44.8%
- viability, T/C (second compound 3.16 µM, first compound 1 µM): 37.4%
- viability, T/C (second compound 10 µM, first compound 0.00316 µM): 74.2%
- viability, T/C (second compound 10 µM, first compound 0.01 µM): 80.1%
- viability, T/C (second compound 10 µM, first compound 0.0316 µM): 65.7%
- viability, T/C (second compound 10 µM, first compound 0.1 µM): 52.6%
- viability, T/C (second compound 10 µM, first compound 0.316 µM): 41.5%
- viability, T/C (second compound 10 µM, first compound 1 µM): 32.3%

Compound: CCN1CCN(Cc2ccc(Nc3ncc(F)c(-c4cc(F)c5nc(C)n(C(C)C)c5c4)n3)nc2)CC1 + CNC(C)C(=O)NC1CN(S(=O)(=O)c2cccc(S(=O)(=O)N3CCC4CCC(C(=O)NC(c5ccccc5)c5ccccc5)N4C(=O)C(NC(=O)C(C)NC)C3)c2)CCC2CCC(C(=O)NC(c3ccccc3)c3ccccc3)N2C1=O
- IC50 (curve of first compound, second compound 0.01 µM): < 3.16 nM
- IC50 (curve of first compound, second compound 0.0316 µM): < 3.16 nM
- IC50 [1]: < 3.16 nM
- IC50 [2]: < 3.16 nM
- IC50 [3]: < 3.16 nM
- viability, T/C (second compound 0.01 µM, first compound 0.00316 µM): 5.3%
- viability, T/C (second compound 0.01 µM, first compound 0.01 µM): 6.9%
- viability, T/C (second compound 0.01 µM, first compound 0.0316 µM): 9.46%
- viability, T/C (second compound 0.01 µM, first compound 0.1 µM): 7.15%
- viability, T/C (second compound 0.01 µM, first compound 0.316 µM): 6.5%
- viability, T/C (second compound 0.01 µM, first compound 1 µM): 5.95%
- viability, T/C (second compound 0.0316 µM, first compound 0.00316 µM): 4.57%
- viability, T/C (second compound 0.0316 µM, first compound 0.01 µM): 4.1%
- viability, T/C (second compound 0.0316 µM, first compound 0.0316 µM): 3.84%
- viability, T/C (second compound 0.0316 µM, first compound 0.1 µM): 4.62%
- viability, T/C (second compound 0.0316 µM, first compound 0.316 µM): 6.92%
- viability, T/C (second compound 0.0316 µM, first compound 1 µM): 5.07%
- viability, T/C [4]: 3.7%
- viability, T/C [5]: 4.39%
- viability, T/C [6]: 3.41%
- viability, T/C [7]: 3.01%
- viability, T/C [8]: 4.87%
- viability, T/C [9]: 3.86%
- viability, T/C [10]: 2.69%
- viability, T/C [11]: 4.01%
- viability, T/C [12]: 3.79%
- viability, T/C [13]: 4.21%
- viability, T/C [14]: 3.33%
- viability, T/C [15]: 3.67%
- viability, T/C [16]: 2.84%
- viability, T/C [17]: 3.75%
- viability, T/C [18]: 3.08%
- viability, T/C [19]: 3.26%
- viability, T/C [20]: 3.93%
- viability, T/C [21]: 3.85%

Compound: CCN1C(C(=O)NC23CCC(C(=O)O)(CC2)CC3)C(c2cccc(Cl)c2F)C2(C(=O)Nc3cc(Cl)ccc32)C12CCCCC2 (centres undefined)
- viability, T/C (compound 0.00949 µM): 102% and 98.3%
- viability, T/C (compound 0.03 µM): 102% [middle of 15 runs]
- viability, T/C (compound 0.0949 µM): 106% [middle of 15 runs]
- viability, T/C (compound 0.3 µM): 106% [middle of 15 runs]
- viability, T/C (compound 0.949 µM): 113% [middle of 15 runs]
- IC50 (compound alone, run of 09/27/2022): > 3000 nM
- IC50 (curve of compound): > 3000 nM
